Test results as given in patent US20250270170A1, “2,3-DIMETHOXY-5-METHYL-1,4-BENZOQUINONE ALKYL ALCOHOL DERIVATIVE AND USE THEREOF” (BEIJING ANJIANXI BIO-MEDICAL TECHNOLOGY CO., LTD., priority 2021, published 2025).
Several values for one entry are separate records, joined by “and”; a condition that tells them apart may be missing. Identical values can stand only once.

Legend:
[1] = Example 11: body weight in cisplatin-induced acute kidney damage model; type: in vivo, C57BL/6J mice; conditions: mouse, in vivo
Experimental: (§1) 42 male C57BL/6J mice (age: 6 to 8 weeks, body weight 18-20 g, certificate number: 11400700238365) were purchased from Si Pei Fu (Beijing) Biotechnology Co., Ltd., and raised in an SPF-grade animal room of the Institute of Materia Medica, Chinese Academy of Medical Sciences, at a temperature of 20 to 25° C., a relative humidity of 40% to 70%, and a cycle of 12 hours of light and 12 hours of dark. The animals had free access to water and food. After 3 days of normal feeding, mice with good physical conditions after the veterinary examination were selected for this assay. Before grouping, a marker was used to mark on the base of the animals' tail. After grouping, each animal was marked with an ear cutout (7 mice in each group).
(§2) Assay animals: 42 7-week-old male C57 mice were used for animal testing after an adaptive feeding.
(§3) Group 1: blank control group;
(§4) The preparation of the R01 formulation administration test solution was the same as that in Example 5: an appropriate amount of the R01 formulation was weighed according to the three dosages set in the assay, respectively, and an appropriate volume of 0.5% CMC-Na aqueous solution was added. The mixture was vortexed and sonicated until mixed evenly, to give the administration test solutions with concentrations of […], respectively, which were ready for use.
(§5) Animal testing period: 7 days (excluding adaptive feeding), hereinafter referred to as: D1-D7.
(§6) 1. The first group was a solvent control group: N=7, all mice were males (the same below); • a) 0.5% solution of sodium carboxymethyl cellulose was gavagely administered from D1 to D6 (twice a day for each animal, with an interval of 8 hours between the morning and the afternoon). • b) Physiological saline was intraperitoneally injected in one-time on D4. • c) On D7, blood was collected from the orbit for euthanasia (300 ul of serum was extracted), the left kidney was fixed in formaldehyde, and the right kidney was preserved in liquid nitrogen (WB study may be carried out).
3) Each animal was weighed before euthanasia, and the weight was recorded. Two kidneys were weighed as soon as possible after euthanasia, and the weight was recorded. Then, the two kidneys were quickly fixed or cryopreserved, and the kidney coefficient of the mouse was calculated (kidney weight/mouse weight).
(§7) The body weight of the animals when being grouped for administration in each group was recorded. The body weight and the kidney weight at the end of the assay were also recorded, and the kidney coefficient was calculated. The creatinine and urea nitrogen values in the blood samples sent for testing were recorded. The kidneys were stained with HE and PAS, and the slides were scanned. A report was issued after the pathological analysis.
(§8) The assay data were calculated and processed statistically using Microsoft Office Excel 2007 software. Unless otherwise specified, the data were expressed as mean±standard error (Mean±SE), and t-test was used for comparison between two groups.

[2] = test system: cisplatin-induced acute kidney damage in mice; test: Example 11: serum urea nitrogen (Bun) in cisplatin-induced acute kidney damage model; type: in vivo, C57BL/6J mice; conditions: for serum urea nitrogen value vs model group: P>0.05; for Urea nitrogen (Bun) level after the assay, x (mean): group mean; for Urea nitrogen (Bun) level after the assay, x (mean) / Urea nitrogen (Bun) level after the assay: cisplatin model; for Urea nitrogen (Bun) level after the assay: individual animals No. 1-7
Experimental: as §1, §2, §3, §4, §5, §6
1) The concentrations of urea nitrogen and creatinine in peripheral blood serum were tested.
as §7, §8

SMILES: COC1=C(OC)C(=O)C(CCCCCCCCCCOC(=O)Cc2c(C)n(C(=O)c3ccc(Cl)cc3)c3ccc(OC)cc23)=C(C)C1=O [compound of formula (I)]
- Body weight after the assay, After x (mean) ([1]; 6 mg/kg): 16.2 g
- Body weight, Before x- after x ([1]; 6 mg/kg): 4.2 g
- Body weight after the assay, After x (mean) ([1]; 18 mg/kg): 16.2 g
- Body weight, Before x- after x ([1]; 18 mg/kg): 4.3 g
- Body weight after the assay, After x (mean) ([1]; 36 mg/kg): 16.1 g
- Body weight, Before x- after x ([1]; 36 mg/kg): 4.4 g
- serum urea nitrogen value ([2]; R01 high-dosage group (36 mg/kg bid) with cisplatin 10 mg/kg, P<0.05): significantly lower than that of the model group
- serum urea nitrogen value vs model group ([2]; R01 low-dosage group (6 mg/kg bid) with cisplatin 10 mg/kg): no significant difference
- serum urea nitrogen value vs model group ([2]; R01 medium-dosage group (18 mg/kg bid) with cisplatin 10 mg/kg): no significant difference
- Urea nitrogen (Bun) level after the assay, x (mean) ([2]; R01 6 mg/kg): 16.1 mg/dL
- Urea nitrogen (Bun) level after the assay, x (mean) ([2]; R01 18 mg/kg): 16.1 mg/dL
- Urea nitrogen (Bun) level after the assay, x (mean) ([2]; R01 36 mg/kg): 13.7 mg/dL
- Urea nitrogen (Bun) level after the assay ([2]; R01 6 mg/kg, listed as R01, 6 mg/kg): 28.3 mg/dL and 29.25 mg/dL and 10.62 mg/dL and 11.72 mg/dL and 13.85 mg/dL and 4.91 mg/dL and 14.1 mg/dL
- Urea nitrogen (Bun) level after the assay ([2]; R01 18 mg/kg, listed as R01, 18 mg/kg): 13.41 mg/dL and 15.83 mg/dL and 19.59 mg/dL and 14.73 mg/dL and 10.38 mg/dL and 22 mg/dL and 16.55 mg/dL
- Urea nitrogen (Bun) level after the assay ([2]; R01 36 mg/kg, listed as R01, 36 mg/kg): 12.39 mg/dL and 12.73 mg/dL and 14.32 mg/dL and 14.34 mg/dL and 9.98 mg/dL and 14 mg/dL and 17.8 mg/dL
